Test results published in patent publication US12622895B2, “Anti-neurodegenerative combinations and use for treatment of neurodegenerative diseases” (ALTO NEUROSCIENCE, INC., priority 2018, dated 2026).
Like-named read-outs stand apart in the source and are kept apart here.

Key:
brain cell systems = conditions: cited from earlier work
animals = conditions: cited from earlier work
[1] = test system: patients with secondary progressive multiple sclerosis; conditions: high-dose, 140 patients, cited from earlier work
patients with PD = conditions: 25 mg-50 mg, alone or with levodopa; cited from earlier work
[2] = test system: rat corticostriatal slices; conditions: 0.3, 1, 3 and 10 μM; cited from earlier work
[3] = test system: mice that received 6-hydroxydopamine; conditions: injection, 30 mg/kg; cited from earlier work
alpha-synuclein = alpha-synuclein (Homo sapiens, UniProt P37840); conditions: cited from earlier work
Engrailed mutant mice = conditions: cited from earlier work
MPTP-treated mice = conditions: 20 mg/kg; cited from earlier work
[4] = test system: A53T α-synuclein-induced neurodegeneration; conditions: cited from earlier work
PD patients = conditions: doses approved for the motor symptoms of PD; 535 PD patients; cited from earlier work
[5] = test system: human neuroblastoma SH-SY5Y cells; conditions: cited from earlier work
Parkinsonian patient = conditions: one patient, cited from earlier work
patients [6] = conditions: in vivo; cited from earlier work
[7] = biological target: human wild-type alpha-synuclein (Homo sapiens, UniProt P37840); conditions: by H2O2 plus cytochrome c; cited from earlier work
patients [8] = conditions: 5 mg/day of pramipexole, cited from earlier work
mouse PD model = conditions: cited from earlier work
[9] = test system: α-synuclein in peripheral blood exosomes; conditions: PD patients, approved therapeutic doses; cited from earlier work
subjects = conditions: in vivo
rodent = conditions: fluoxetine added to pramipexole; cited from earlier work
Caenorhabditis elegans = conditions: C. elegans; cited from earlier work
MPTP induced damage = conditions: toxin-induced model of PD; cited from earlier work
6-OHDA induced damage = conditions: toxin-induced model of PD; cited from earlier work
rodents = conditions: large doses, acute systemic administration; cited from earlier work

SMILES: CCC(C)(C)C(=O)O[C@H]1C[C@@H](C)C=C2C=C[C@H](C)[C@H](CC[C@@H]3C[C@@H](O)CC(=O)O3)[C@H]21 [simvastatin, (1S,3R,7S,8S,8aR)-8-{2-[(2R,4R)-4-hydroxy-6-oxotetrahydro-2H-pyran-2-yl]ethyl}-3,7-dimethyl-1,2,3,7,8,8a-hexahydronaphthalen-1-yl 2,2-dimethylbutanoate]
- dopaminergic neurodegeneration (brain cell systems; 6-OHDA-lesioned cell model (Xu et al. 2013)): robust neuroprotection against dopaminergic neurodegeneration
- consequences of the dopaminergic neurotoxin 6-OHDA (brain cell systems; brain cell systems): protect against the deleterious consequences of the dopaminergic neurotoxin 6-hydroxydopamine
- consequences of dopaminergic neurotoxin MPTP (animals): protect against the deleterious consequences of dopaminergic neurotoxin MPTP
- tolerability and safety [1]: well tolerated and safe
- annualised rate of whole-brain atrophy ([1]; versus placebo): reduced the annualised rate of whole-brain atrophy compared with placebo

SMILES: NS(=O)(=O)Cc1noc2ccccc12 [zonisamide, benzo[d]isoxazol-3-ylmethanesulfonamide]
- motor symptoms (patients with PD): improve motor symptoms
- rotenone-induced toxicity (loss of corticostriatal field potential amplitude) [2]: significantly reduced the rotenone-induced toxicity
- loss of nigral dopamine neurons [3]: prevented the loss of nigral dopamine neurons
- oligomerization (and aggregation) of alpha-synuclein in vitro (alpha-synuclein): inhibits the in vitro oligomerization and aggregation of alpha-synuclein
- survival of nigrostriatal dopaminergic neurons, striatal terminals and motor function (Engrailed mutant mice; chronic administration, versus saline): improved the survival of nigrostriatal dopaminergic neurons as well as their striatal dopaminergic terminals and motor function
- brain-derived neurotrophic factor content in striatum and ventral midbrain (Engrailed mutant mice; versus saline-treated controls): increased
- loss of nigral TH-positive neurons (MPTP-treated mice): reduced the loss of nigral TH-positive neurons
- striatal dopamine depletion (MPTP-treated mice): attenuating the associated striatal dopamine depletion
- duration of the effect ([4]; after transgene injection): lasted at least eight weeks
- survival of nigrostriatal dopamine neurons ([4]; oral, 40 mg/kg/day): no impact
- pace of degeneration ([4]; oral, 40 mg/kg/day, four weeks after injection of the viral vector, versus control group): significantly delayed the pace of degeneration

SMILES: CCCN[C@H]1CCc2nc(N)sc2C1 [Pramipexole, (S)-6-propylamino-4,5,6,7-tetrahydro-1,3-benzothiazole-2-amine]
- neuroprotective (disease modifying) activity (PD patients): failed to evidence neuroprotective (i.e., disease modifying) activity
- aggregation of alpha-synuclein [5]: inhibit the aggregation of alpha-synuclein
- oligomerization (and aggregation) of alpha-synuclein in vitro (alpha-synuclein): diminishes synuclein oligomer formation
- hallucinations (Parkinsonian patient; extended-release formulation, pramipexole 4.5 mg/day with levodopa, entcapone, selegiline and zonisamide): induce hallucinations
- hallucinations (Parkinsonian patient; immediate release formulation, same combination): not
- side effects of the approved doses, often dose-limiting (patients [6]): nausea, vomiting, somnolence, confusion, postural hypotension, and hallucinations as well as gastrointestinal disturbances
- in vitro oligomerization of human wild-type alpha-synuclein [7]: decreases
- nausea, patients (patients [8]): 76%
- vomiting, patients (patients [8]): 39%
- patients not able to complete the study (patients [8]; presumably intolerable GI adverse events): 36%
- toxic effects of rotenone on dopaminergic neurons (mouse PD model; mouse PD model): inhibits the toxic effects of rotenone on dopaminergic neurons
- immunoreactivity for alpha-synuclein (mouse PD model; rotenone mouse PD model): reducing immunoreactivity for alpha-synuclein
- magnitude of the effect on alpha-synuclein expression [9]: small
- first intolerable dose reached (subjects; human): All subjects reached FID-1
- dose limiting toxicity (subjects): gastro-intestinal adverse events

SMILES: CNCCC(Oc1ccc(C(F)(F)F)cc1)c1ccccc1 (stereo not drawn) [fluoxetine, 1-methylamino-3-phenyl-3-[4-(trifluoromethyl)phenoxy]propane]
- activity of pramipexole in the forced swimming test (rodent): enhance the activity of pramipexole
- amyloid-β oligomers (Caenorhabditis elegans): reducing amyloid-β oligomers
- amyloid-β-induced paralysis (Caenorhabditis elegans): significantly delay
- life span (Caenorhabditis elegans): extend life span
- thermal stress resistance (Caenorhabditis elegans): increase thermal stress resistance
- MPTP induced damage (MPTP induced damage): protect against
- 6-OHDA induced damage (6-OHDA induced damage): protect against
- extracellular concentrations of norepinephrine and dopamine (rodents): significant increase
